Assay results as given in publication PMC9841532, “Exploring the Effect of Halogenation in a Series of Potent and Selective A2B Adenosine Receptor Antagonists” (Journal of Medicinal Chemistry, 2022).
Like-named read-outs stand apart in the source and are kept apart here.

Experiments:
A2B = settings: cited from earlier work
[1] = Human microsomal stability; type: in vitro ADME; settings: human, human microsomes, pH 7.4; read-out: microsomal stability t1/2
Protocol: The human microsomal stability of selected compounds was evaluated by following a previously described method.[31] The human microsomes employed were purchased from Tebu-Xenotech. The compound was incubated with the microsomes at 37 °C in a 50 mM phosphate buffer (pH = 7.4) containing 3 mM MgCl2, 1 mM NADP, 10 mM glucose-6-phosphate, and 1 U/mL glucose-6-phosphate-dehydrogenase. Samples (75 μL) were taken from each well at 0, 10, 20, 40, and 60 min and transferred to a plate containing 4 °C 75 μL acetonitrile and 30 μL of 0.5% formic acid in water was added for improving the chromatographic conditions. The plate was centrifuged (46,000 g, 30 min), and supernatants were taken and analyzed in a UPLC-MS/MS (Xevo TQD, Waters) by employing a BEH C18 column and an isocratic gradient of 0.1% formic acid in water:0.1% formic acid acetonitrile (60:40). The metabolic stability of the compounds was calculated from the logarithm of the remaining compounds at each of the time point studied.

hA2AAR = biological target: T1, hA2AAR (Homo sapiens, UniProt P29274); assay: Radioligand binding competition, [3H]ZM241385, membranes from HeLa-A2A cells; settings: 1 μM, [3H]ZM241385, human HeLa cells, n = 2
T1 construct: expressed in transfected cells; host or cells: HeLa (HeLa-A2A) cell membranes
T1 sequence (P29274 whole entry): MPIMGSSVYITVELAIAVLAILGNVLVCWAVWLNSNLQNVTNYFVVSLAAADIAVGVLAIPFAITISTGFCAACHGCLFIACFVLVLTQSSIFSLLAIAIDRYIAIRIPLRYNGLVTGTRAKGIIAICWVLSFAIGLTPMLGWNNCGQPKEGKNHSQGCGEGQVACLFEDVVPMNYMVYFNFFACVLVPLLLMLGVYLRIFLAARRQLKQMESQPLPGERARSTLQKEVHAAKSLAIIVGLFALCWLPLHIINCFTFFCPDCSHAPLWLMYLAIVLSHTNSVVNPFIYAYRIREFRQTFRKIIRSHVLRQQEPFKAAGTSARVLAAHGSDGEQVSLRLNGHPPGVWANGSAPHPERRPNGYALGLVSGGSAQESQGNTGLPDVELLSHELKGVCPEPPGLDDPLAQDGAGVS
Procedure, shortened: (§1)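 Racemates, plus selected enantiomers after chiral resolution, were tested at 25 °C, with a 60 min incubation for one subtype and 30 min for others. Non-specific binding was defined with 10 μM or 100 μM R-PIA. Bound radioactivity was counted after washing and filtration.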

hA3AR = biological target: T2, hA3AR (Homo sapiens, UniProt P0DMS8); assay: Radioligand binding competition, [3H]NECA, membranes from HeLa-A3 cells; settings: 1 μM, [3H]NECA, human HeLa cells, n = 2
T2 construct: expressed in transfected cells; host or cells: HeLa (HeLa-A3) cell membranes
T2 sequence (P0DMS8 1-318): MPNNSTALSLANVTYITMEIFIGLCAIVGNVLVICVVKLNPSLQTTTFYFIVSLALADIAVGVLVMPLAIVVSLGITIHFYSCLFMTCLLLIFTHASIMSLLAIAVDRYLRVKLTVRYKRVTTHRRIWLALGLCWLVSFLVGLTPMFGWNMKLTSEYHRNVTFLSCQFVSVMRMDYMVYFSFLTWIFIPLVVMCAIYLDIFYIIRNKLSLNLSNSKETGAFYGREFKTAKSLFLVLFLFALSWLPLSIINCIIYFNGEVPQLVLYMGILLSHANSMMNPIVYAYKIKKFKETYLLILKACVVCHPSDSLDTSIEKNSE
Procedure, shortened: as §1

hA2BAR = biological target: T3, hA2BAR (Homo sapiens, UniProt P29275); assay: Radioligand binding competition, [3H]DPCPX, membranes from HEK-293-A2B cells; parameters: Exp. dG: unit not given here; settings: for % at 1 μM hA2B (percentage displacement of specific binding): [3H]DPCPX, human HEK-293 cells, n = 2
T3 construct: host or cells: HEK-293 (HEK-293-A2B) cell membranes
T3 sequence (P29275 1-332): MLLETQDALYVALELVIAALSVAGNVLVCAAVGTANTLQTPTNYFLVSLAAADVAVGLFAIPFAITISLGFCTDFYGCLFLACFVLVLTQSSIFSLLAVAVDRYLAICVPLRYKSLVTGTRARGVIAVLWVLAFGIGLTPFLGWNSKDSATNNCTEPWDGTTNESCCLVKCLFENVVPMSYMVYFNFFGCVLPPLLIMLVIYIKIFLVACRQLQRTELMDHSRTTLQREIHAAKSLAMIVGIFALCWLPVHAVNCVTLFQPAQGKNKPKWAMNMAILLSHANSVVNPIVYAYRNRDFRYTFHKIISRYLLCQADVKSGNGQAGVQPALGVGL
Procedure, shortened: as §1

hA1AR = biological target: T4, hA1AR (Homo sapiens, UniProt P30542); assay: Radioligand binding competition, [3H]DPCPX, membranes from CHO-A1 cells; settings: 1 μM, [3H]DPCPX, human CHO cells, n = 2
T4 sequence (P30542 1-326): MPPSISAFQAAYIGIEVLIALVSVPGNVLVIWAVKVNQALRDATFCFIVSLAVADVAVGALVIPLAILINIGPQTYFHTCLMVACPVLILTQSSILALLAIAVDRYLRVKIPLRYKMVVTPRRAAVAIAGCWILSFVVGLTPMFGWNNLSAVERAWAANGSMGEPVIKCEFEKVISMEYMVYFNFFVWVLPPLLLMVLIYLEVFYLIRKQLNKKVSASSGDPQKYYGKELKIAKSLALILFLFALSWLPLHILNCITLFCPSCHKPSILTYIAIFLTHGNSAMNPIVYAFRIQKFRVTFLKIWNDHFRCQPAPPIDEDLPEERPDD
Procedure, shortened: as §1

[2] = displacement of specific [3H]DPCPX binding in human HEK-293 cells, n = 3, read-out: Ki hA2B

Molecule	% at 1 μM hA2A (percentage displacement of specific binding) (hA2AAR)	% at 1 μM hA3 (percentage displacement of specific binding) (hA3AR)	% at 1 μM hA1 (percentage displacement of specific binding) (hA1AR)	% at 1 μM hA2B (percentage displacement of specific binding) (hA2BAR)	also measured
PSB-603					Ki (A2B; Table 8 ref 28, read-out: hA2B Ki): 0.553 nM
C[C@]12CC[C@H]3[C@@H](CCC4=CC(=O)CC[C@@]43C)[C@@H]1CC[C@@H]2O [testosterone, reference compound]					half-life at 1 h [1]: 16.1 min
CC1=C(C(=O)OC(C)C)C(c2ccsc2)n2c(nc3cc(Cl)ccc32)N1 (centres unmarked) [16p]	7%	4%	7%		Ki (hA2BAR; [2]): 165 ± 9 nM
CC1=C(C(=O)OC(C)C)[C@H](c2ccco2)n2c(nc3cc(F)ccc32)N1 [(R)-16b]	5%	19%	15%	41%	
CCOC(=O)C1=C(C)Nc2nc3ccc(Br)cc3n2C1c1ccco1 (centres unmarked) [15q]	21%	5%	22%	48%	
CC1=C(C(=O)OC(C)C)C(c2ccoc2)n2c(nc3cc(Br)c(Br)cc32)N1 (centres unmarked) [14t]	1%	9%	1%	32%	
CC1=C(C(=O)OC(C)C)C(c2ccco2)NC(=S)N1 (centres unmarked) [SYAF030]					Ki (A2B; Figure 1, representative A2B antagonists ref 28-32, read-out: Ki): 10.2 nM
CC1=C(C(=O)OC(C)C)C(c2cccs2)n2c(nc3cc(Br)ccc32)N1 (centres unmarked) [16v]	1%	1%	1%		Ki (hA2BAR; [2]): 115 ± 3 nM; Ki (hA2BAR; supplementary CSV, no unit printed (nM in Tables 2-5), read-out: Ki_hA2B): 115 nM
CCOC(=O)C1=C(C)Nc2nc3ccc(Cl)cc3n2C1c1cccs1 (centres unmarked) [15m]	3%	1%	2%	1%	
CCOC(=O)C1=C(C)Nc2nc3ccc(Cl)cc3n2C1c1ccco1 (centres unmarked) [15i]	2%	4%	26%	18%	
CCOC(=O)C1=C(C)Nc2nc3cc(Cl)ccc3n2C1c1ccco1 (centres unmarked) [16i]	10%	4%	23%		Ki (hA2BAR; [2]): 8.42 ± 1.4 nM; Exp. dG (hA2BAR; experimental binding free energy, Supplementary Table S3, unit not given (errors in kcal/mol)): -11.01; Ki (hA2BAR; read-out: Ki hA2B): < 10 nM
